Test results reported in patent US20140088144A1, “INHIBITING MICROBIAL INFECTIONS” (THE UNIVERSITY OF KANSAS, priority 2012, published 2014).

Assays:
[1] = system: virB; experiment: Shigella gene expression qRT-PCR, virB; assay type: cell-based, S. flexneri; conditions: for Average ΔΔCt / Ct / RQ (2^−ΔΔCt) / ΔΔCt^1 (normalized to gapA) / ΔΔCt^2 (normalized to rrsA): virB, example data
Description: (§1) Real-time quantitative reverse transcription PCR (qRT-PCR) was performed to test the effects of SE-1 on the expression of the VirF regulated genes virB, icsA, icsB and ipaB. The gapA and rrsA transcripts were used as internal controls. These are constitutively expressed Shigella genes commonly used to normalize mRNA levels. S. flexneri strain SME4331, which carries a null mutation in ipgD (ipgD), was grown at 30° C. overnight in TSB with ampicillin, diluted into the same medium to an OD600 of ˜0.1, and 1 ml aliquots further grown at 30° C. (DMSO only) or at 37° C. (SE-1 at 20 or 40 μM, or DMSO only, all 0.3% DMSO). Cells were grown to an OD600 of 1.0 (˜2.5 h) and RNA was isolated using an RNeasy MiniElute Cleanup Kit (Qiagen, Germantown, Md.), with DNA contamination eliminated using a Turbo DNase Kit (Ambion, Austin, Tex.). Complementary DNA (cDNA) was synthesized by random priming using a cDNA Reverse Transcription Kit (Applied Biosystems, Foster City, Calif.). Primers were tested for PCR specificity using genomic DNA template to ensure a single amplicon of the expected size for each primer pair, and validated using 5-fold dilutions of cDNA (2000 to 0.0256 ng) to ensure a linear plot of cycle threshold (Ct) versus cDNA concentration. Validated primer sets were used to test mRNA profiles in reactions that contained 10 ng of cDNA, 10 μl of SYBR green master mix (Applied Biosystems), specific primers (0.5 μM each) and water to a final volume of 20 μl, using a Step One Plus Real-Time PCR System (Applied Biosystems). The data was analyzed using the 2^−ΔΔCt method, and also by Applied Biosystems real-time analysis software. […] In brief, ΔΔCt values [ΔΔCt=(Ct,Target−Ct,Internal Control)SE-1−(Ct,Target−Ct,Internal Control)no SE-1] were separately obtained for each sample relative to two internal controls, gapA and rrsA. The ΔΔCt values relative to the two internal controls for each sample were averaged and then used to calculate the relative expression levels (2^−ΔΔCt). As a control, we also normalized each internal control to the other internal control. Control reactions used templates generated without reverse transcriptase to ensure low genomic DNA contamination. To ensure that products were not likely to be due to primer dimer artifacts, additional control samples were performed in which reaction mixtures contained primers alone (no template).

[2] = biological target: RhaS (Escherichia coli, UniProt P09377); experiment: % Inhibition at 82.5 μM, RhaS; assay type: cell-based, E. coli
Chain of RhaS (P09377 whole entry, the tested form may be a part): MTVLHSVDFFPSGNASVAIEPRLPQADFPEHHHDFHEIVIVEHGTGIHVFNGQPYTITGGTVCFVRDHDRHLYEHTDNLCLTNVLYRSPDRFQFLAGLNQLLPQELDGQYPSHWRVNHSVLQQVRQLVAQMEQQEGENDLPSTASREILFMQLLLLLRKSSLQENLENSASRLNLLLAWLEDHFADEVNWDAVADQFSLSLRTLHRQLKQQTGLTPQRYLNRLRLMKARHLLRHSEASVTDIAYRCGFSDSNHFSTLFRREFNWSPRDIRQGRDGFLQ

[3] = biological target: Rns (Escherichia coli, UniProt P16114); experiment: In vivo activation by Rns (promoter-lacZ fusion); assay type: cell-based, Enterotoxigenic E. coli; conditions: compared with full-length RhaS
Chain of Rns (P16114 whole entry, the tested form may be a part): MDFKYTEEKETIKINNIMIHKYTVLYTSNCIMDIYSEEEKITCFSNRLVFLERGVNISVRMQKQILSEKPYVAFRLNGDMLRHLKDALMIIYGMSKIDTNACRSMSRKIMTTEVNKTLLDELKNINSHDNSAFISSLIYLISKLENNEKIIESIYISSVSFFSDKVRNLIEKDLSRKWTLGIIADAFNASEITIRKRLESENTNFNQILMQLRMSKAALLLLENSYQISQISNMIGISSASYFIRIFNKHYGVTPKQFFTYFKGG
From the text: Expression of promoter-lacZ fusions regulated by the indicated activators, or the control Lad regulated fusion at the indicated concentrations of Compound 1. Average of three independent experiments, with two replicates in each experiment.
The compounds of the invention can be used for inhibition of virulence in vivo and in vitro activation by Rns and VirF.

[4] = system: gapA; experiment: Shigella gene expression qRT-PCR, internal control gapA; assay type: cell-based, S. flexneri; conditions: for Average ΔΔCt / Ct / RQ (2^−ΔΔCt) / ΔΔCt^2 (normalized to rrsA): gapA, example data
Description: as §1

For CCCCN1C=C(c2ccc3ccccc3n2)C(C[N+](=O)[O-])c2ccccc21 (stereo not shown) [Compound 1, 1-butyl-4-(nitromethyl)-3-quinolin-2-yl-4H-quinoline], the “maximal inhibition of virB expression” value ([1]; 40 μM SE-1, P<0.05) was “more than two fold”, the “Average ΔΔCt” value ([1]; SE-1 20 μM) was 1.13 and the Ct ([1]; SE-1 20 μM) was 23.26. The “RQ (2^−ΔΔCt)” value ([1]; SE-1 20 μM) was 0.46, the “ΔΔCt^1 (normalized to gapA)” value ([1]; SE-1 20 μM) was 0.63 and the “ΔΔCt^2 (normalized to rrsA)” value ([1]; SE-1 20 μM) was 1.63. The “Average ΔΔCt” value ([1]; SE-1 40 μM) was 1.47, the Ct ([1]; SE-1 40 μM) was 23.18 and the “RQ (2^−ΔΔCt)” value ([1]; SE-1 40 μM) was 0.36. The “ΔΔCt^1 (normalized to gapA)” value ([1]; SE-1 40 μM) was 1.12, the “ΔΔCt^2 (normalized to rrsA)” value ([1]; SE-1 40 μM) was 1.81 and the “% Inhibition at 82.5 μM RhaS” value [2] was 90%. The “inhibition of in vivo activation by Rns” value [3] was “similar, if not greater, extent than full-length RhaS”, the “expression of control gene gapA” value ([4]; 40 μM SE-1, normalized to rrsA) was “no decrease” and the “Average ΔΔCt” value ([4]; SE-1 20 μM) was 1. For the same compound, the Ct ([4]; SE-1 20 μM) was 27.33, the “RQ (2^−ΔΔCt)” value ([4]; SE-1 20 μM) was 0.5 and the “ΔΔCt^2 (normalized to rrsA)” value ([4]; SE-1 20 μM) was 1. For the same compound, the “Average ΔΔCt” value ([4]; SE-1 40 μM) was −0.69, the Ct ([4]; SE-1 40 μM) was 26.76 and the “RQ (2^−ΔΔCt)” value ([4]; SE-1 40 μM) was 0.62. For the same compound, the “ΔΔCt^2 (normalized to rrsA)” value ([4]; SE-1 40 μM) was −0.69.
